From patent publication US20240109917A1 (ACTELION PHARMACEUTICALS LTD, priority 2020, published 2024)

Columns and labels:
VEGFR2, unphosphorylated = VEGFR2, unphosphorylated (Homo sapiens (Human), UniProt P35968); assay: VEGFR ADP GLO Assay; assay type: biochemical
[1] = target: Tb-labeled inactive PDGFRβ (Homo sapiens (Human), UniProt P09619); assay: PDGFRβ LanthaScreen Assay; assay type: binding; settings: read-out: PDGFR Lantha IC50
Sequence of Tb-labeled inactive PDGFRβ (P09619 33-1106): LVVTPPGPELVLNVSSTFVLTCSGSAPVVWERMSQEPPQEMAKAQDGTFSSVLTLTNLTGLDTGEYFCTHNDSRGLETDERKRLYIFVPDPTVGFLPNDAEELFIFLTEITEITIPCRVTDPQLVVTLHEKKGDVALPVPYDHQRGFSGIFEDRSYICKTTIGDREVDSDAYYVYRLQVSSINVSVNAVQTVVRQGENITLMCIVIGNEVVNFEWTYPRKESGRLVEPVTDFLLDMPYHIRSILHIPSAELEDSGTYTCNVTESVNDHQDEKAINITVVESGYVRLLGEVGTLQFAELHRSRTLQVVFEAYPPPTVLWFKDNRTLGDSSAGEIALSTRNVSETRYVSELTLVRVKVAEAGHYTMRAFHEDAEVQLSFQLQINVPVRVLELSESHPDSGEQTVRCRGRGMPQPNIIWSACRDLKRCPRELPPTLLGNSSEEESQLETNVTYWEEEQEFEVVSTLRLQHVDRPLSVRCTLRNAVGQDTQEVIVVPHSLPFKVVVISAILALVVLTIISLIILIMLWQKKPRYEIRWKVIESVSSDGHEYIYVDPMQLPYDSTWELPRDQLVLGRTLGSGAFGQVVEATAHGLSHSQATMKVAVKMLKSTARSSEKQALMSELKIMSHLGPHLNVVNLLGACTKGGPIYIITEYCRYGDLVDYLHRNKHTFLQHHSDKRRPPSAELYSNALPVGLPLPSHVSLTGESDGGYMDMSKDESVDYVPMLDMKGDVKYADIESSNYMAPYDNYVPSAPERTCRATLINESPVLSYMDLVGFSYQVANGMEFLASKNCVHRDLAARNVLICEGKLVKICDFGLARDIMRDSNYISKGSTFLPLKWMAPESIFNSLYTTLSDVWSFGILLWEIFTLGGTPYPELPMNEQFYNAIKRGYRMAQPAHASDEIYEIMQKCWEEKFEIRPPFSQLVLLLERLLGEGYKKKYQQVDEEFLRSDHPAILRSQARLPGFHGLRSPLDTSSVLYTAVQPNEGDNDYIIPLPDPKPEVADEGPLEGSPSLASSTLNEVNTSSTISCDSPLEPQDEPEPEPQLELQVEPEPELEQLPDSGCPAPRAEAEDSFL

Sequence of VEGFR2, unphosphorylated (P35968 20-1356): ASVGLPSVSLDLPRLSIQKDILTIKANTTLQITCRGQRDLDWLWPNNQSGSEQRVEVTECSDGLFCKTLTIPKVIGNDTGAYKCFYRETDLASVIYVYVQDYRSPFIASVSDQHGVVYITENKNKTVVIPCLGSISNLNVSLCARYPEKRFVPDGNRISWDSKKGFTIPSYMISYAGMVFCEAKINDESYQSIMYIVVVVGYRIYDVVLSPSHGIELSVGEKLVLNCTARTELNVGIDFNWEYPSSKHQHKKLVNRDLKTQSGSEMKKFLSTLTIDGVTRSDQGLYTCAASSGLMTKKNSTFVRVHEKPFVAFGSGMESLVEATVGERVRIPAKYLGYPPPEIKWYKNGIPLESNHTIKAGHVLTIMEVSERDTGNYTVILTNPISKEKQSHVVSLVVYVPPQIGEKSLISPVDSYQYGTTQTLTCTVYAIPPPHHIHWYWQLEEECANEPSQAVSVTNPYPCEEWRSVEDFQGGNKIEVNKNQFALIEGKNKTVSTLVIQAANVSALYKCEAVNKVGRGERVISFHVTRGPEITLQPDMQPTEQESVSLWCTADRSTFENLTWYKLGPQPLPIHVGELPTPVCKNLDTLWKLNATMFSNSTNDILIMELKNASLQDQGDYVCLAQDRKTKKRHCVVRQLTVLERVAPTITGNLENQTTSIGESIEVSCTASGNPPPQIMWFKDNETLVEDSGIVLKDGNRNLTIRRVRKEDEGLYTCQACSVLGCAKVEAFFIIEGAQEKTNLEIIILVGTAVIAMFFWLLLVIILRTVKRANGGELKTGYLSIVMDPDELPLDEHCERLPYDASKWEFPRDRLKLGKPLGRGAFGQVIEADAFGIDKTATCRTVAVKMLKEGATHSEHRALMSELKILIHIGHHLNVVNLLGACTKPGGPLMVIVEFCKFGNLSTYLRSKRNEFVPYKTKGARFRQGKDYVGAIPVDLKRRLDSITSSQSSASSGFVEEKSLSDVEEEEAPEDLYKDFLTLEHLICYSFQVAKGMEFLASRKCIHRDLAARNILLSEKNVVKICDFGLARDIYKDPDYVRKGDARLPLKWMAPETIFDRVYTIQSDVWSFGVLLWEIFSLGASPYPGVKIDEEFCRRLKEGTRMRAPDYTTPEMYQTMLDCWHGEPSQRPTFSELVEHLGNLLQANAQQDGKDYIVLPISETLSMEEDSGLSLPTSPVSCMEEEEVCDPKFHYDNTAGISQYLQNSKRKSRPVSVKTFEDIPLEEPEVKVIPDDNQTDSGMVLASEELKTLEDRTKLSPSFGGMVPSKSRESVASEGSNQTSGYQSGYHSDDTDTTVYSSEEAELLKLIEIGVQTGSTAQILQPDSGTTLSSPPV

SMILES | IC50 (VEGFR2, unphosphorylated) [nM] | IC50 [1] [nM]
COCCn1cc(-c2cn3ncc(C(=O)Nc4cc(NC(=O)CCN5CCC56CCC6)cnc4C)c3s2)cn1 [Example 95, N-(5-(3-(1-azaspiro[3.3]heptan-1-yl)propanamido)-2-methylpyridin-3-yl)-2-(1-(2-methoxyethyl)-1H-pyrazol-4-yl)pyrazolo[5,1-b]thiazole-7-carboxamide] | > 7500 | 5.1
Cc1ncc(C(=O)NCCN2CCOCC23CCC3)cc1NC(=O)c1cnn2cc(-c3cnn(C)c3)sc12 [Example 117, N-(5-((2-(8-oxa-5-azaspiro[3.5]nonan-5-yl)ethyl)carbamoyl)-2-methylpyridin-3-yl)-2-(1-methyl-1H-pyrazol-4-yl)pyrazolo[5,1-b]thiazole-7-carboxamide] | > 7500 | 2.3
Cc1ncc(NC(=O)CCN2CCC3(CC2)CC3)cc1NC(=O)c1cnn2cc(-c3cnn(C)c3)sc12 [Example 97, N-(5-(3-(6-azaspiro[2.5]octan-6-yl)propanamido)-2-methylpyridin-3-yl)-2-(1-methyl-1H-pyrazol-4-yl)pyrazolo[5,1-b]thiazole-7-carboxamide] | > 7500 | 6.4
Cc1ncc(C(=O)NCCN2CCCC2(C)C)cc1NC(=O)c1cnn2cc(-c3cnn(CCO)c3)sc12 [Example 140, N-(5-((2-(2,2-dimethylpyrrolidin-1-yl)ethyl)carbamoyl)-2-methylpyridin-3-yl)-2-(1-(2-hydroxyethyl)-1H-pyrazol-4-yl)pyrazolo[5,1-b]thiazole-7-carboxamide] | > 7500 | 4.9
Cc1ncc(C(=O)NCCN2CC3CCC2CC3)cc1NC(=O)c1cnn2cc(-c3cnn(CC#N)c3)sc12 [Example 151, N-(5-((2-(2-azabicyclo[2.2.2]octan-2-yl)ethyl)carbamoyl)-2-methylpyridin-3-yl)-2-(1-(cyanomethyl)-1H-pyrazol-4-yl)pyrazolo[5,1-b]thiazole-7-carboxamide] | > 7500 | 2.8
Cc1ncc(C(=O)NCCN2CCOCC23CC3)cc1NC(=O)c1cnn2cc(-c3cnn(C)c3)sc12 [Example 110, N-(5-((2-(7-oxa-4-azaspiro[2.5]octan-4-yl)ethyl)carbamoyl)-2-methylpyridin-3-yl)-2-(1-methyl-1H-pyrazol-4-yl)pyrazolo[5,1-b]thiazole-7-carboxamide] | 664 | 5.7
COCCn1nc(C)c(-c2cn3ncc(C(=O)Nc4cc(NC(=O)CCN5CCC6(CC6)C5)cnc4C)c3s2)c1C [Example 103, N-(5-(3-(5-azaspiro[2.4]heptan-5-yl)propanamido)-2-methylpyridin-3-yl)-2-(1-(2-methoxyethyl)-3,5-dimethyl-1H-pyrazol-4-yl)pyrazolo[5,1-b]thiazole-7-carboxamide] | > 7500 | 8.6
Cc1ncc(NC(=O)CCN2CCCC2(C)C)cc1NC(=O)c1cnn2cc(-c3ccnn3C)sc12 [Example 11, N-(5-(3-(2,2-dimethylpyrrolidin-1-yl)propanamido)-2-methyl-pyridin-3-yl)-2-(1-methyl-1H-pyrazol-5-yl)pyrazolo[5,1-b]thiazole-7-carboxamide] | > 7500 | 5
Cc1ncc(C(=O)NCCN2C3CCC2COC3)cc1NC(=O)c1cnn2cc(-c3cnn(C)c3)sc12 [Example 122, N-(5-((2-(3-oxa-8-azabicyclo[3.2.1]octan-8-yl)ethyl)carbamoyl)-2-methylpyridin-3-yl)-2-(1-methyl-1H-pyrazol-4-yl)pyrazolo[5,1-b]thiazole-7-carboxamide] | > 7500 | 2.8
COCCN(CCNC(=O)c1cnc(C)c(NC(=O)c2cnn3cc(-c4cnn(C)c4)sc23)c1)C(C)C [Example 127, N-(5-((2-(isopropyl(2-methoxyethyl)amino)ethyl)carbamoyl)-2-methylpyridin-3-yl)-2-(1-methyl-1H-pyrazol-4-yl)pyrazolo[5,1-b]thiazole-7-carboxamide] | > 7500 | 6
Cc1ncc(C(=O)NCCN2CCC(F)(F)CC2)cc1NC(=O)c1cnn2cc(-c3ccncc3)sc12 [Example 154, N-(5-((2-(4,4-difluoropiperidin-1-yl)ethyl)carbamoyl)-2-methylpyridin-3-yl)-2-(pyridin-4-yl)pyrazolo[5,1-b]thiazole-7-carboxamide] | > 7500 | 2.4
Cc1ncc(C(=O)NCCN2CCCC2(C)C)cc1NC(=O)c1cnn2cc(-c3ccncc3)sc12 [Example 7, N-(5-((2-(2,2-dimethylpyrrolidin-1-yl)ethyl)carbamoyl)-2-methyl-pyridin-3-yl)-2-(pyridin-4-yl)pyrazolo[5,1-b]thiazole-7-carboxamide] | > 7500 | 8.3
COCCN(CCNC(=O)c1cnc(C)c(NC(=O)c2cnn3cc(-c4cnn(C)c4)sc23)c1)CCOC [Example 128, N-(5-((2-(bis(2-methoxyethyl)amino)ethyl)carbamoyl)-2-methylpyridin-3-yl)-2-(1-methyl-1H-pyrazol-4-yl)pyrazolo[5,1-b]thiazole-7-carboxamide] | > 7500 | 18.3
Cc1ncc(C(=O)NCCN2CC3CCC2CC3)cc1NC(=O)c1cnn2cc(-c3cccnc3)sc12 [Example 149, N-(5-((2-(2-azabicyclo[2.2.2]octan-2-yl)ethyl)carbamoyl)-2-methylpyridin-3-yl)-2-(pyridin-3-yl)pyrazolo[5,1-b]thiazole-7-carboxamide] | > 7500 | 5
Cc1ncc(C(=O)NCCN2Cc3ncsc3C2)cc1NC(=O)c1cnn2cc(-c3cnn(C)c3)sc12 [Example 111, N-(5-((2-(4H-pyrrolo[3,4-d]thiazol-5 (6H)-yl)ethyl)carbamoyl)-2-methylpyridin-3-yl)-2-(1-methyl-1H-pyrazol-4-yl)pyrazolo[5,1-b]thiazole-7-carboxamide] | > 7500 | 36.4
Cc1ncc(C(=O)NCCN2CCCC2(C)C)cc1NC(=O)c1cnn2cc(-c3cncnc3)sc12 [Example 139, N-(5-((2-(2,2-dimethylpyrrolidin-1-yl)ethyl)carbamoyl)-2-methylpyridin-3-yl)-2-(pyrimidin-5-yl)pyrazolo[5,1-b]thiazole-7-carboxamide] | > 7500 | 182
Cc1ncc(C(=O)NCCN2CC3CCC2CC3)cc1NC(=O)c1cnn2cc(-c3ccncc3)sc12 [Example 148, N-(5-((2-(2-azabicyclo[2.2.2]octan-2-yl)ethyl)carbamoyl)-2-methylpyridin-3-yl)-2-(pyridin-4-yl)pyrazolo[5,1-b]thiazole-7-carboxamide] | > 7500 | 4.2
Cc1ncc(C(=O)NCCN2CCC(F)(F)C2)cc1NC(=O)c1cnn2cc(-c3cnn(C)c3)sc12 [Example 120, N-(5-((2-(3,3-difluoropyrrolidin-1-yl)ethyl)carbamoyl)-2-methylpyridin-3-yl)-2-(1-methyl-1H-pyrazol-4-yl)pyrazolo[5,1-b]thiazole-7-carboxamide] | > 7500 | 4.5
Cc1ncc(C(=O)NCCN2CCC3(CC3)C2)cc1NC(=O)c1cnn2cc(-c3ccccn3)sc12 [Example 160, N-(5-((2-(5-azaspiro[2.4]heptan-5-yl)ethyl)carbamoyl)-2-methylpyridin-3-yl)-2-(pyridin-2-yl)pyrazolo[5,1-b]thiazole-7-carboxamide] | > 7500 | 4.4
Cc1ncc(C(=O)NCCN2CCCC2(C)C)cc1NC(=O)c1cnn2cc(-c3ccc(=O)[nH]n3)sc12 [Example 141, N-(5-((2-(2,2-dimethylpyrrolidin-1-yl)ethyl)carbamoyl)-2-methylpyridin-3-yl)-2-(6-oxo-1,6-dihydropyridazin-3-yl)pyrazolo[5,1-b]thiazole-7-carboxamide] | > 7500 | 18.6
Cc1ncc(C(=O)NCCN2CCCOCC2)cc1NC(=O)c1cnn2cc(-c3cnn(C)c3)sc12 [Example 121, N-(5-((2-(1,4-oxazepan-4-yl)ethyl)carbamoyl)-2-methylpyridin-3-yl)-2-(1-methyl-1H-pyrazol-4-yl)pyrazolo[5,1-b]thiazole-7-carboxamide] | > 7500 | 13.1
Cc1ncc(C(=O)NCCN2CCC23CCC3)cc1NC(=O)c1cnn2cc(-c3cn(C)nc3C)sc12 [Example 175, N-(5-((2-(1-azaspiro[3.3]heptan-1-yl)ethyl)carbamoyl)-2-methylpyridin-3-yl)-2-(1,3-dimethyl-1H-pyrazol-4-yl)pyrazolo[5,1-b]thiazole-7-carboxamide] | > 7500 | 3.8
Cc1ncc(NC(=O)NCCC2CCN(C)CC2)cc1NC(=O)c1cnn2cc(-c3cnn(C)c3)sc12 [Example 108, 2-(1-methyl-1H-pyrazol-4-yl)-N-(2-methyl-5-(3-(2-(1-methylpiperidin-4-yl)ethyl)ureido)pyridin-3-yl)pyrazolo[5,1-b]thiazole-7-carboxamide] | > 2500 | 490
COCCn1cc(-c2cn3ncc(C(=O)Nc4cc(C(=O)NCCN5CCC(F)(F)CC5)cnc4C)c3s2)cn1 [Example 165, N-(5-((2-(4,4-difluoropiperidin-1-yl)ethyl)carbamoyl)-2-methylpyridin-3-yl)-2-(1-(2-methoxyethyl)-1H-pyrazol-4-yl)pyrazolo[5,1-b]thiazole-7-carboxamide] | > 7500 | 3.4
Cc1ncc(NC(=O)NCC2CCN(C)CC2)cc1NC(=O)c1cnn2cc(-c3cnn(C)c3)sc12 [Example 107, 2-(1-methyl-1H-pyrazol-4-yl)-N-(2-methyl-5-(3-((1-methylpiperidin-4-yl)methyl)ureido)pyridin-3-yl)pyrazolo[5,1-b]thiazole-7-carboxamide] | > 7500 | 582
Cc1ncc(NC(=O)CCN2CCC3(CC3)C2)cc1NC(=O)c1cnn2cc(-c3cnn(C)c3)sc12 [Example 104, N-(5-(3-(5-azaspiro[2.4]heptan-5-yl)propanamido)-2-methylpyridin-3-yl)-2-(1-methyl-1H-pyrazol-4-yl)pyrazolo[5,1-b]thiazole-7-carboxamide] | > 7500 | 9.8
